Target: TACE (Homo sapiens (Human), UniProt P78536)
Assay: TACE inhibition test (in vitro)
Type: biochemical
Conditions: fluorescent synthetic substrate, 37° C., 1.5 hours
Description: The nucleotide sequence of TACE has been reported by Moss et al. (Moss, M. L. et al., Nature 1997, 385, 733-736). Accordingly, the cDNA of TACE was obtained according to the prescribed method from THP-1 cells or the like, and then incorporated the cDNA into an expression vector. Next, this vector was transformed into mammalian cells or insect cells, and TACE expression was obtained.
The TACE inhibition test was carried out by measuring TACE activity in the presence and the absence of the test substance using the thus-obtained TACE as an enzyme, and a fluorescent synthetic substrate Nma(N-methylanthranilic acid)-Leu-Ala-Gln-Ala-Val-Arg-Ser-Ser-Lys(Dnp(dinitrophenyl))-D-Arg-NH2 (SEQ ID NO: 1) including the TACE-cleaved sequence of a membrane-bound TNF as a substrate. The TACE inhibition test method is shown below.
Namely, 90 μL of an enzyme solution prepared with an assay buffer A (50 mM tris-hydrochloric acid buffer (pH 7.5) including 200 mM sodium chloride, 5 mM calcium chloride, 10 μM zinc sulfate, and 2 mg/mL bovine serum albumin) and 90 μL of a fluorescent synthetic substrate prepared with an assay buffer B (50 mM tris-hydrochloric acid buffer (pH 7.5) including 200 mM sodium chloride, 5 mM calcium chloride, 10 μM zinc sulfate, and 0.05% PLURONIC F-68) were mixed together, and reacted at 37° C. for 1.5 hours. Enzyme activity was then determined by measuring with a fluorescence intensity meter (Labsystems, Fluoroskan Ascent) at an excitation wavelength of 355 nm and a measurement wavelength of 460 nm.
From the enzyme activity in the presence or the absence of the test substance, the inhibition rate was determined, and the 50% inhibitiory concentration (IC50) of the test substance was calculated.

TACE, sequence (P78536 215-824): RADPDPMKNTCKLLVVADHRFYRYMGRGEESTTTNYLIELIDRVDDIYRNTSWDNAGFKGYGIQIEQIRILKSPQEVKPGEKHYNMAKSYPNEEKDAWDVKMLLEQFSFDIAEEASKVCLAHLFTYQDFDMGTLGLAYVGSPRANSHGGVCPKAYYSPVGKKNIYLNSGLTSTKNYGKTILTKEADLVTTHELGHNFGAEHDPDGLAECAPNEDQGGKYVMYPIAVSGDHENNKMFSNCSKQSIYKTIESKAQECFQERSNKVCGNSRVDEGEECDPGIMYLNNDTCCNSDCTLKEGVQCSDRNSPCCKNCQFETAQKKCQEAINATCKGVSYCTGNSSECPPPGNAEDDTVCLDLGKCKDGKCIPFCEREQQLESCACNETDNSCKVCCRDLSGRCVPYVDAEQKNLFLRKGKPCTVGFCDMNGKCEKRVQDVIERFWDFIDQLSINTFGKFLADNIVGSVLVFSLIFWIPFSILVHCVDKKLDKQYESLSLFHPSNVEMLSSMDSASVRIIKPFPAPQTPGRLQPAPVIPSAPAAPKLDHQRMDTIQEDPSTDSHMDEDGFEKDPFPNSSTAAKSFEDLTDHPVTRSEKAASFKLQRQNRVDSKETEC

Q: Which IC50 does the source give for COc1ccc(C2(Cn3cccc(C)c3=O)NC(=O)NC2=O)cc1 (stereo not drawn) [Compound I-2, 5-(4-methoxyphenyl)-5-[(3-methyl-2-oxopyridin-1(2H)-yl)methyl]imidazolidine-2,4-dione] here?
A: < 100 nM

Q: For Cc1cccn(CC2(c3ccc(C#N)cc3)NC(=O)NC2=O)c1=O (stereo not drawn) [Compound I-3, 4-{4-[(3-methyl-2-oxopyridin-1(2H)-yl)methyl]-2,5-dioxoimidazolidine-4-yl}benzonitrile], which IC50 is on record?
A: < 100 nM

Q: How did the IC50 turn out when COc1cccc(C2(Cn3cccc(C)c3=O)NC(=O)NC2=O)c1 (stereo not drawn) [Compound I-4, 5-(3-methoxyphenyl)-5-[(3-methyl-2-oxopyridin-1(2H)-yl)methyl]imidazolidine-2,4-dione] was run?
A: < 100 nM

Q: How did the IC50 turn out when Cc1cccn(CC2(c3ccsc3)NC(=O)NC2=O)c1=O (stereo not drawn) [Compound I-5, 5-[(3-methyl-2-oxopyridin-1(2H)-yl)methyl]-5-(thiophen-3-yl)imidazolidine-2,4-dione] was run?
A: < 100 nM

Q: How did the IC50 turn out when Cc1cccn(CC2(c3cc4ccccc4o3)NC(=O)NC2=O)c1=O (stereo not drawn) [Compound I-6, 5-(benzofuran-2-yl)-5-[(3-methyl-2-oxopyridin-1(2H)-yl)methyl]imidazolidine-2,4-dione] was run?
A: < 100 nM

Q: Which IC50 does the source give for Cc1cccn(CC2(c3ccccn3)NC(=O)NC2=O)c1=O (stereo not drawn) [Compound I-7, 5-[(3-methyl-2-oxopyridin-1(2H)-yl)methyl]-5-(pyridin-2-yl)imidazolidine-2,4-dione] here?
A: < 100 nM

Q: How did the IC50 turn out when Cc1cccn(CC2(c3cccnc3)NC(=O)NC2=O)c1=O (stereo not drawn) [Compound I-8, 5-[(3-methyl-2-oxopyridin-1(2H)-yl)methyl]-5-(pyridin-3-yl)imidazolidine-2,4-dione] was run?
A: < 100 nM

Q: For Cc1cccn(CC2(c3ccc(Br)cc3)NC(=O)NC2=O)c1=O (stereo not drawn) [Compound I-11, 5-(4-bromophenyl)-5-[(3-methyl-2-oxopyridin-1(2H)-yl)methyl]imidazolidine-2,4-dione], which IC50 is on record?
A: < 100 nM

Q: COc1cc(C2(Cn3cccc(C)c3=O)NC(=O)NC2=O)ccc1F (stereo not drawn) [Compound I-12, 5-(4-fluoro-3-methoxyphenyl)-5-[(3-methyl-2-oxopyridin-1(2H)-yl)methyl]imidazolidine-2,4-dione] was tested. Which IC50 did it give?
A: < 100 nM

Q: How did the IC50 turn out when COCOc1ccc(C2(Cn3cccc(C)c3=O)NC(=O)NC2=O)cc1 (stereo not drawn) [Compound I-13, 5-[4-(methoxymethoxy)phenyl]-5-[(3-methyl-2-oxopyridin-1(2H)-yl)methyl]imidazolidine-2,4-dione] was run?
A: < 100 nM

Q: How did the IC50 turn out when COc1ccc(C2(Cn3cccc(C)c3=O)NC(=O)NC2=O)cc1F (stereo not drawn) [Compound I-14, 5-(3-fluoro-4-methoxyphenyl)-5-[(3-methyl-2-oxopyridin-1(2H)-yl)methyl]imidazolidine-2,4-dione] was run?
A: < 100 nM

Q: How did the IC50 turn out when Cc1cccn(CC2(c3ccc(F)cc3)NC(=O)NC2=O)c1=O (stereo not drawn) [Compound I-15, 5-(4-fluorophenyl)-5-[(3-methyl-2-oxopyridin-1(2H)-yl)methyl]imidazolidine-2,4-dione] was run?
A: < 100 nM

Q: For COc1ccc(C2(Cn3cccc(C)c3=O)NC(=O)NC2=O)cc1OC (stereo not drawn) [Compound I-16, 5-(3,4-dimethoxyphenyl)-5-[(3-methyl-2-oxopyridin-1(2H)-yl)methyl]imidazolidine-2,4-dione], which IC50 is on record?
A: < 100 nM

Q: How did the IC50 turn out when Cc1cccn(CC2(c3ccc(C(C)(C)C)cc3)NC(=O)NC2=O)c1=O (stereo not drawn) [Compound I-17, 5-[4-(tert-butyl)phenyl]-5-[(3-methyl-2-oxopyridin-1(2H)-yl)methyl]imidazolidine-2,4-dione] was run?
A: < 100 nM

Q: How did the IC50 turn out when COc1ccc(C2(Cn3cccc(C)c3=O)NC(=O)NC2=O)c(OC)c1 (stereo not drawn) [Compound I-18, 5-(2,4-dimethoxyphenyl)-5-[(3-methyl-2-oxopyridin-1(2H)-yl)methyl]imidazolidine-2,4-dione] was run?
A: < 100 nM

Q: How did the IC50 turn out when Cc1cccn(CC2(c3cccc(C(F)(F)F)c3)NC(=O)NC2=O)c1=O (stereo not drawn) [Compound I-19] was run?
A: < 100 nM

Q: COc1ccc(OC)c(C2(Cn3cccc(C)c3=O)NC(=O)NC2=O)c1 (stereo not drawn) [Compound I-20, 5-(2,5-dimethoxyphenyl)-5-[(3-methyl-2-oxopyridin-1(2H)-yl)methyl]imidazolidine-2,4-dione] was tested. Which IC50 did it give?
A: < 100 nM

Q: Which IC50 does the source give for COc1cc(F)ccc1C1(Cn2cccc(C)c2=O)NC(=O)NC1=O (stereo not drawn) [Compound I-21, 5-(4-fluoro-2-methoxyphenyl)-5-[(3-methyl-2-oxopyridin-1(2H)-yl)methyl]imidazolidine-2,4-dione] here?
A: < 100 nM

Q: How did the IC50 turn out when Cc1cccn(CC2(c3ccc4occc4c3)NC(=O)NC2=O)c1=O (stereo not drawn) [Compound I-22, 5-(benzofuran-5-yl)-5-[(3-methyl-2-oxopyridin-1(2H)-yl)methyl]imidazolidine-2,4-dione] was run?
A: < 100 nM

Q: Which IC50 does the source give for Cc1cccn(CC2(c3ccc4sccc4c3)NC(=O)NC2=O)c1=O (stereo not drawn) [Compound I-23, 5-(benzo[b]thiophen-5-yl)-5-[(3-methyl-2-oxopyridin-1(2H)-yl)methyl]imidazolidine-2,4-dione] here?
A: < 100 nM

Q: Which IC50 does the source give for COc1ccc(OC(F)(F)F)cc1C1(Cn2cccc(C)c2=O)NC(=O)NC1=O (stereo not drawn) [Compound I-24, 5-[2-methoxy-5-(trifluoromethoxy)phenyl]-5-[(3-methyl-2-oxopyridin-1(2H)-yl)methyl]imidazolidine-2,4-dione] here?
A: 100 to 1000 nM

Q: Cc1cccn(CC2(c3ccc(S(C)(=O)=O)cc3)NC(=O)NC2=O)c1=O (stereo not drawn) [Compound I-25, 5-[(3-methyl-2-oxopyridin-1(2H)-yl)methyl]-5-[4-(methylsulfonyl)phenyl]imidazolidine-2,4-dione] was tested. Which IC50 did it give?
A: < 100 nM

Q: For Cc1cccn(CC2(c3ccc4c(c3)CCCO4)NC(=O)NC2=O)c1=O (stereo not drawn) [Compound I-26, 5-(chroman-6-yl)-5-[(3-methyl-2-oxopyridin-1(2H)-yl)methyl]imidazolidine-2,4-dione], which IC50 is on record?
A: < 100 nM

Q: How did the IC50 turn out when Cc1cccn(CC2(c3cccc(F)c3)NC(=O)NC2=O)c1=O (stereo not drawn) [Compound I-28, 5-(3-fluorophenyl)-5-[(3-methyl-2-oxopyridin-1(2H)-yl)methyl]imidazolidine-2,4-dione] was run?
A: < 100 nM

Q: Which IC50 does the source give for Cc1cccn(CC2(c3cc(F)c(F)cc3F)NC(=O)NC2=O)c1=O (stereo not drawn) [Compound I-29, 5-[(3-methyl-2-oxopyridin-1(2H)-yl)methyl]-5-(2,4,5-trifluorophenyl)imidazolidine-2,4-dione] here?
A: < 100 nM

Q: Cc1cc(C2(Cn3cccc(C)c3=O)NC(=O)NC2=O)ccc1F (stereo not drawn) [Compound I-30, 5-(4-fluoro-3-methylphenyl)-5-[(3-methyl-2-oxopyridin-1(2H)-yl)methyl]imidazolidine-2,4-dione] was tested. Which IC50 did it give?
A: < 100 nM

Q: With Cc1cccn(CC2(c3ccc(-c4ccncc4)cc3)NC(=O)NC2=O)c1=O (stereo not drawn) [Compound I-31, 5-[(3-methyl-2-oxopyridin-1(2H)-yl)methyl]-5-[4-(pyridin-4-yl)phenyl]imidazolidine-2,4-dione] as the compound, how does the IC50 read?
A: < 100 nM

Q: How did the IC50 turn out when Cc1cccn(CC2(c3ccc(-c4cccnc4)cc3)NC(=O)NC2=O)c1=O (stereo not drawn) [Compound I-32, 5-[(3-methyl-2-oxopyridin-1(2H)-yl)methyl]-5-[4-(pyridin-3-yl)phenyl]imidazolidine-2,4-dione] was run?
A: < 100 nM

Q: With Cc1cccn(CC2(c3ccc(C#CC(C)(C)C)cc3)NC(=O)NC2=O)c1=O (stereo not drawn) [Compound I-33, 5-[4-(3,3-dimethylbut-1-yn-1-yl)phenyl]-5-[(3-methyl-2-oxopyridin-1(2H)-yl)methyl]imidazolidine-2,4-dione] as the compound, how does the IC50 read?
A: < 100 nM

Q: With Cc1ccc(Oc2ccc(C3(Cn4cccc(C)c4=O)NC(=O)NC3=O)cc2)cc1 (stereo not drawn) [Compound I-34, 5-[(3-methyl-2-oxopyridin-1(2H)-yl)methyl]-5-[4-(p-tolyloxy)phenyl]imidazolidine-2,4-dione] as the compound, how does the IC50 read?
A: < 100 nM

Q: With Cc1ccccc1Oc1ccc(C2(Cn3cccc(C)c3=O)NC(=O)NC2=O)cc1 (stereo not drawn) [Compound I-35, 5-[(3-methyl-2-oxopyridin-1(2H)-yl)methyl]-5-[4-(o-tolyloxy)phenyl]imidazolidine-2,4-dione] as the compound, how does the IC50 read?
A: < 100 nM

Q: How did the IC50 turn out when Cc1cc(C2(Cn3cccc(C)c3=O)NC(=O)NC2=O)ccc1OC1CCCC1 (stereo not drawn) [Compound I-39, 5-[4-(cyclopentyloxy)-3-methylphenyl]-5-[(3-methyl-2-oxopyridin-1(2H)-yl)methyl]imidazolidine-2,4-dione] was run?
A: < 100 nM

Q: How did the IC50 turn out when Cc1cccn(CC2(c3ccc(-c4nn[nH]n4)cc3)NC(=O)NC2=O)c1=O (stereo not drawn) [Compound I-42, 5-[4-(2H-tetrazol-5-yl)phenyl]-5-[(3-methyl-2-oxopyridin-1(2H)-yl)methyl]imidazolidine-2,4-dione] was run?
A: < 100 nM

Q: Which IC50 does the source give for C=Cc1ccc(C2(Cn3cccc(C)c3=O)NC(=O)NC2=O)cc1 (stereo not drawn) [Compound I-43, 5-[(3-methyl-2-oxopyridin-1(2H)-yl)methyl]-5-(4-vinylphenyl)imidazolidine-2,4-dione] here?
A: < 100 nM

Q: With Cc1cccn(CC2(c3cc(F)c(F)c(F)c3)NC(=O)NC2=O)c1=O (stereo not drawn) [Compound I-44, 5-[(3-methyl-2-oxopyridin-1(2H)-yl)methyl]-5-(3,4,5-trifluorophenyl)imidazolidine-2,4-dione] as the compound, how does the IC50 read?
A: < 100 nM

Q: For CCCc1ccc(C2(Cn3cccc(C)c3=O)NC(=O)NC2=O)cc1 (stereo not drawn) [Compound I-45, 5-[(3-methyl-2-oxopyridin-1(2H)-yl)methyl]-5-(4-propylphenyl)imidazolidine-2,4-dione], which IC50 is on record?
A: < 100 nM

From patent US10000476B2, “Pyridone derivative, pharmaceutical containing the same and methods of use thereof” (KAKEN PHARMACEUTICAL CO., LTD., priority 2011, dated 2018)
